Series [1] deals with Adalia sp. In words: LR50; higher = less toxic. As to conditions: chronic/long-term; duration: 21 days; mortality.
The test system of series [2] is Macromiidae. To be noted: acute; duration: 96 hours; growth.
Series [3] concerns Mus musculus. As to conditions: acute; oral; mortality.
Series [4] concerns Colinus virginianus.
Series [5] relates to Apis mellifera. As to conditions: acute; duration: 48 hours; dermal; mortality.
For series [6], the system named is Bibionidae. To be noted: chronic/long-term; duration: 28 days; other.
Series [7] relates to Daphnia magna. To be noted: chronic/long-term, duration: 21 days.
Series [8] deals with Tagia sp. As to conditions: acute; duration: 14 days; mortality.
The test system of series [9] is Canidae. To be noted: oral, Dog Other, hematological.
For series [10], the system named is Lepomis macrochirus. To be noted: acute; duration: 96 hours; mortality.
The subject of series [11] is Rattus norvegicus.
The subject of series [12] is Pimephales promelas. As to conditions: chronic/long-term; duration: 35 days; growth.
Setting [13] is: reproduction developmental, reproduction.

SMILES strings stand for the structures. ≈ marks a conversion by molar mass, not a printed value.

From EPA's ToxValDB 9.5 (doi:10.2903/j.efsa.2010.1871) come the findings set out here.

A word on the NOAEL: it is the highest dose or exposure tested at which no adverse effect was seen.

On to `CCc1ccc(C(=O)NN(C(=O)c2cc(C)cc(C)c2)C(C)(C)C)cc1` [Tebufenozide], for which the LR50 in [1] was more than 128 g/ha. Further, the NOEC in series [2] was 0.046 mg/L; in series [6], 0.0057 mg/L; in [7] (growth), 0.029 mg/L; in [7] (reproduction), 0.0078 mg/L; in series [8], not below 1000 mg/kg; in series [12], 0.71 mg/L. The LD50 in series [3] is more than 5000 mg/kg; in series [4] (acute, oral, mortality) it was more than 2150 mg/kg; in series [5] it was more than 234 µg/piece; in [11] (acute, oral, mortality), more than 5000 mg/kg. The LC50 is more than 814 mg/kg in series [4] (acute, oral, diet, mortality); more than 1000 mg/kg in series [8]; 3 µg/mL (≈ 8.51 µM) in series [10]. The no observed adverse effect level (NOAEL) in series [4] (setting [13]) turned out to be 48 mg/kg-day; in series [9] (chronic, duration: 52 weeks), 2 mg/kg-day; in [9] (subchronic, duration: 90 days) it was 2 mg/kg-day; in series [11] (setting [13]) it was 15 mg/kg-day.
